# PubChem BioAssay AID1963861 (Molecular Pharmacology Branch, DTP, NCI, 2024)
# Test system: 885724-159-R-J1-PDC KRAS PDC multicell spheroid viability
# Assay: Anticancer human tumor 885724-159-R-J1-PDC patient-derived pancreatic adenocarcinoma cell line growth inhibition [KRAS2]
# Settings: for IC50: curve of first compound; for viability, T/C: stronger effect = lower value
# Excerpt: Multicellular complex tumor spheroid response to RAS pathway inhibitors in combination with a targeted agents in patient-derived cell lines with oncogenic KRAS variants from multiple cancer types
# A high-throughput screen of multi-cell type tumor spheroids was designed to identify active combinations of targeted small molecules and KRAS pathway inhibitors. Complex spheroids include a stromal component modeled by human endothelial cells (HUVEC) and fibroblasts modeled by human mesenchymal stem cells (MSCs). The concentration ranges selected for each drug and investigational agent were based upon clinically achievable concentrations if the clinical Cmax of the agent was known.
# Compounds. The drugs and investigational agents: BI-3406 (NSC825286), BAY-293 (NSC824723), batoprotafib (TNO155; NSC825523), sotorasib (AMG 510; NSC818433), MRTX1257 (NSC819558), elimusertib (BAY 1895344; NSC800525), molibresib (GSK525762; NSC774829), temuterkib (LY3214996; NSC803410), venetoclax (NSC766270), alisertib (NSC759677), olaparib (NSC753686), talazoparib (NSC767125), erdafitinib (NSC781556), ipatasertib (NSC767898), cabozantinib (NSC761068), nintedanib (NSC756659), abemaciclib (NSC768073), docetaxel (NSC628503), trametinib (NSC758246), and sapanisertib (NSC764658) were obtained from the National Cancer Institute (NCI) Developmental Therapeutics Program Chemical Repository. The FDA-approved anticancer drug set is available from the Developmental Therapeutics Program. […] The stock solutions were prepared in dimethyl sulfoxide (DMSO, Sigma-Aldrich, St. Louis, MO, cat. D2650) at 800-fold the tested concentration and stored at -70 degrees C prior to their use. All drugs and investigational agents were tested over a range starting from a high concentration at or near the clinical Cmax and decreasing in half-log increments. If the clinical Cmax for an agent had not been determined, the highest concentration tested was 10 microM.
# Cell Culture. All cells were maintained in an incubator at 37 degrees C and 5% CO2 with 95% humidity. The PDC lines were cultured according to standard operating procedures established by the NCI PDMR (https://pdmr.cancer.gov/sops/default.htm). Briefly, all PDCs were thawed and cultured in Matrigel-coated flasks prepared with a working solution of 1X Ham's F-12 nutrient mix, without supplementation (Invitrogen, Waltham, MA, cat. 11765054), 100 U/mL penicillin-streptomycin (Invitrogen, cat. 15140122), and 2.5% Matrigel (Corning Inc., Corning, NY, cat. 354248) for the first three passages. All PDCs were cultured in complete DMEM/F-12 media containing advanced DMEM/F-12 (Invitrogen, cat. 12634028), 4.9% defined fetal bovine serum, heat inactivated (HyClone Laboratories Inc., Logan, UT, cat. SH30070.03HI), 389 ng/mL hydrocortisone (Sigma-Aldrich, cat. H4001), 9.7 ng/mL human EGF recombinant protein (Invitrogen, cat. PHG0313), 23.4 microg/mL adenine (Sigma-Aldrich, cat. A2786), 97.3 U/mL penicillin-streptomycin (Invitrogen, cat. 15140122), 1.9 mM L-glutamine (Invitrogen, cat. 25030081), and 9.7 microM Y-27632 dihydrochloride (Tocris Bioscience, Bristol, United Kingdom, cat. 1254). The PDCs were cultured in complete DMEM/F12 media without 9.7 microM Y-27632 dihydrochloride for at least two passages prior to the screen. The established cell line HOP-62 was cultured in RPMI 1640 medium, HEPES (Invitrogen, cat. 22400105) with 10% defined fetal bovine serum (HyClone Laboratories Inc., cat. SH30070.03) and 2 mM L-glutamine (Invitrogen, cat. 25030081). The pooled donor HUVEC were cultured in endothelial cell growth medium 2 (PromoCell, Heidelberg, Germany, cat. C-22011) and the hMSC were cultured in mesenchymal stem cell growth medium 2 (PromoCell, cat. C-28009). For all experiments, HUVEC and hMSC were used at passages </=5, while the malignant cell lines were used at passages </=15. […]
# [1] = second compound 0.1 µM, first compound 0.0316 µM
# [2] = second compound 0.316 µM, first compound 0.0316 µM
# [3] = second compound 1 µM, first compound 0.0316 µM
# [4] = second compound 3.16 µM, first compound 0.0316 µM
# [5] = second compound 10 µM, first compound 0.0316 µM
# [6] = second compound 0.1 µM, first compound 0.1 µM
# [7] = second compound 0.1 µM, first compound 0.316 µM
# [8] = second compound 0.1 µM, first compound 1 µM
# [9] = second compound 0.1 µM, first compound 3.16 µM
# [10] = second compound 0.1 µM, first compound 10 µM
# [11] = second compound 0.316 µM, first compound 0.1 µM
# [12] = second compound 0.316 µM, first compound 0.316 µM
# [13] = second compound 0.316 µM, first compound 1 µM
# [14] = second compound 0.316 µM, first compound 3.16 µM
# [15] = second compound 0.316 µM, first compound 10 µM
# [16] = second compound 1 µM, first compound 0.1 µM
# [17] = second compound 1 µM, first compound 0.316 µM
# [18] = second compound 1 µM, first compound 1 µM
# [19] = second compound 1 µM, first compound 3.16 µM
# [20] = second compound 1 µM, first compound 10 µM
# [21] = second compound 3.16 µM, first compound 0.1 µM
# [22] = second compound 3.16 µM, first compound 0.316 µM
# [23] = second compound 3.16 µM, first compound 1 µM
# [24] = second compound 3.16 µM, first compound 3.16 µM
# [25] = second compound 3.16 µM, first compound 10 µM
# [26] = second compound 10 µM, first compound 0.1 µM
# [27] = second compound 10 µM, first compound 0.316 µM
# [28] = second compound 10 µM, first compound 1 µM
# [29] = second compound 10 µM, first compound 3.16 µM
# [30] = second compound 10 µM, first compound 10 µM
# 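Further: spheroids exposed to agents for 7 days before readout.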
compound,measurement,setting,value
CC(=O)Nc1cccc(-n2c(=O)n(C3CC3)c(=O)c3c(Nc4ccc(I)cc4F)n(C)c(=O)c(C)c32)c1 + C=CC(=O)N1CCN(c2nc(=O)n(-c3c(C)ccnc3C(C)C)c3nc(-c4c(O)cccc4F)c(F)cc23)C(C)C1,IC50,second compound 0.1 µM,1.74 nM
same,IC50,second compound 0.316 µM,1.57 nM
same,IC50,second compound 1 µM,2 nM
same,IC50,second compound 3.16 µM,1.36 nM
same,IC50,second compound 10 µM,0.33 nM
same,"viability, T/C","second compound 0.1 µM, first compound 0.0001 µM",102%
same,"viability, T/C","second compound 0.1 µM, first compound 0.000316 µM",81.2%
same,"viability, T/C","second compound 0.1 µM, first compound 0.001 µM",55.9%
same,"viability, T/C","second compound 0.1 µM, first compound 0.00316 µM",42.2%
same,"viability, T/C","second compound 0.1 µM, first compound 0.01 µM",30%
same,"viability, T/C",[1],21.3%
same,"viability, T/C","second compound 0.316 µM, first compound 0.0001 µM",114%
same,"viability, T/C","second compound 0.316 µM, first compound 0.000316 µM",83%
same,"viability, T/C","second compound 0.316 µM, first compound 0.001 µM",54.6%
same,"viability, T/C","second compound 0.316 µM, first compound 0.00316 µM",40.1%
same,"viability, T/C","second compound 0.316 µM, first compound 0.01 µM",30.6%
same,"viability, T/C",[2],21.4%
same,"viability, T/C","second compound 1 µM, first compound 0.0001 µM",92.5%
same,"viability, T/C","second compound 1 µM, first compound 0.000316 µM",84.3%
same,"viability, T/C","second compound 1 µM, first compound 0.001 µM",61.2%
same,"viability, T/C","second compound 1 µM, first compound 0.00316 µM",41.7%
same,"viability, T/C","second compound 1 µM, first compound 0.01 µM",31.9%
same,"viability, T/C",[3],23.8%
same,"viability, T/C","second compound 3.16 µM, first compound 0.0001 µM",84.6%
same,"viability, T/C","second compound 3.16 µM, first compound 0.000316 µM",81.5%
same,"viability, T/C","second compound 3.16 µM, first compound 0.001 µM",52.4%
same,"viability, T/C","second compound 3.16 µM, first compound 0.00316 µM",38.7%
same,"viability, T/C","second compound 3.16 µM, first compound 0.01 µM",30.1%
same,"viability, T/C",[4],26.6%
same,"viability, T/C","second compound 10 µM, first compound 0.0001 µM",61.6%
same,"viability, T/C","second compound 10 µM, first compound 0.000316 µM",51.3%
same,"viability, T/C","second compound 10 µM, first compound 0.001 µM",29.3%
same,"viability, T/C","second compound 10 µM, first compound 0.00316 µM",26.4%
same,"viability, T/C","second compound 10 µM, first compound 0.01 µM",23.2%
same,"viability, T/C",[5],18.6%
COC(=O)c1ccc2c(C(=Nc3ccc(N(C)C(=O)CN4CCN(C)CC4)cc3)c3ccccc3)c(O)[nH]c2c1 + C=CC(=O)N1CCN(c2nc(=O)n(-c3c(C)ccnc3C(C)C)c3nc(-c4c(O)cccc4F)c(F)cc23)C(C)C1,IC50,second compound 0.1 µM,3150 nM
same,IC50,second compound 0.316 µM,2270 nM
same,IC50,second compound 1 µM,2070 nM
same,IC50,second compound 3.16 µM,2110 nM
same,IC50,second compound 10 µM,1540 nM
same,"viability, T/C",[1],109%
same,"viability, T/C",[6],111%
same,"viability, T/C",[7],102%
same,"viability, T/C",[8],103%
same,"viability, T/C",[9],49.8%
same,"viability, T/C",[10],1.26%
same,"viability, T/C",[2],105%
same,"viability, T/C",[11],109%
same,"viability, T/C",[12],102%
same,"viability, T/C",[13],104%
same,"viability, T/C",[14],28.1%
same,"viability, T/C",[15],0.55%
same,"viability, T/C",[3],113%
same,"viability, T/C",[16],111%
same,"viability, T/C",[17],110%
same,"viability, T/C",[18],98.6%
same,"viability, T/C",[19],21.9%
same,"viability, T/C",[20],0.74%
same,"viability, T/C",[4],106%
same,"viability, T/C",[21],110%
same,"viability, T/C",[22],105%
same,"viability, T/C",[23],95.7%
same,"viability, T/C",[24],25.1%
same,"viability, T/C",[25],0.65%
same,"viability, T/C",[5],89.7%
same,"viability, T/C",[26],70.4%
same,"viability, T/C",[27],79.1%
same,"viability, T/C",[28],69.9%
same,"viability, T/C",[29],17.2%
same,"viability, T/C",[30],0.39%
COc1cc(Nc2ncc3c(n2)-c2ccc(Cl)cc2C(c2c(F)cccc2OC)=NC3)ccc1C(=O)O + C=CC(=O)N1CCN(c2nc(=O)n(-c3c(C)ccnc3C(C)C)c3nc(-c4c(O)cccc4F)c(F)cc23)C(C)C1,IC50,second compound 0.1 µM,> 10000 nM
same,IC50,second compound 0.316 µM,> 10000 nM
same,IC50,second compound 1 µM,> 10000 nM
same,IC50,second compound 3.16 µM,> 10000 nM
same,IC50,second compound 10 µM,> 10000 nM
same,"viability, T/C",[1],99.7%
same,"viability, T/C",[6],100%
same,"viability, T/C",[7],95.9%
same,"viability, T/C",[8],92.7%
same,"viability, T/C",[9],100%
same,"viability, T/C",[10],107%
same,"viability, T/C",[2],94.5%
same,"viability, T/C",[11],92.1%
same,"viability, T/C",[12],92.2%
same,"viability, T/C",[13],96.8%
same,"viability, T/C",[14],98.7%
same,"viability, T/C",[15],106%
same,"viability, T/C",[3],97.8%
same,"viability, T/C",[16],93.5%
same,"viability, T/C",[17],92.2%
same,"viability, T/C",[18],93.9%
same,"viability, T/C",[19],85.6%
same,"viability, T/C",[20],99.7%
same,"viability, T/C",[4],80.9%
same,"viability, T/C",[21],85.5%
same,"viability, T/C",[22],86.1%
same,"viability, T/C",[23],90.6%
same,"viability, T/C",[24],90.9%
same,"viability, T/C",[25],87.4%
same,"viability, T/C",[5],65.4%
same,"viability, T/C",[26],67.4%
same,"viability, T/C",[27],63.6%
same,"viability, T/C",[28],58.2%
same,"viability, T/C",[29],56.5%
same,"viability, T/C",[30],49.8%
